Measured values from PMC8875489, “Pharmaceutical and Safety Profile Evaluation of Novel Selenocompounds with Noteworthy Anticancer Activity” (Pharmaceutics, 2022).
Read-outs that look alike come from different tables or passages of the source.

Columns and labels:
[1] = Experimental aqueous solubility (UV spectrophotometry of saturated solutions); type: physicochemical; conditions: for solubility at 24 h: water (saturated solution)
Protocol: Experimental aqueous solubility was determined following a previously described procedure. Briefly, calibration curves were obtained by means of UV spectrometry for each compound, and their respective linear equations were obtained. Afterwards, saturated solutions of each compound were obtained, and they were diluted until the concentration fell within the calibration range, thus enabling the correct concentration interpolation. […] A detailed description of this process can be found in Supplementary Materials.
The aqueous solubility of the tested organic Se compounds was experimentally determined following a previously described procedure. The chosen assay used UV spectrophotometry to estimate the concentration of the saturated solution with known dilutions of the tested compound at room temperature (20° C) after 24 h. The concentrations of the solutions were used to obtain the interpolation of the measured UV absorbance of the saturated solution dilution from the calibration curve drawn using solutions previously prepared in methanol/water mixtures. […]
1.2. Determination of the aqueous solubility
1.2.1. Preparation of the saturated solutions of tested compounds
The saturated solutions (2 mL) of the tested Se-compounds in water were prepared at H2O boiling point in small glass vials. Later, vials were covered to avoid evaporation and all solutions were left 1 day at 20° C, after when every solution was filtered. Finally, the concentration of the Se-compounds was determined through UV spectrophotometric measurements. To estimate correctly the concentration, calibration curves with known concentrations were prepared, and the saturated solutions were diluted till reaching a point within the range of the respective calibration curve.
1.2.2. Preparation of the calibration curve stock solutions for UV spectrometry The stock solutions of 10 selenoesters (EDA-26, EDA-71, EDA-73, EDA-74, EDA-93, […]
were prepared in methanol (99% purity) at a 1 g/L concentration. Additionally, calibration solutions in the range from 0.0005 to 0.02 [g/L] were prepared for each Se-compound and their UV absorbance was determined to draw the corresponding calibration curve.
1.2.3. Sample preparation of saturated filtrates for UV spectrometry
The 100-fold diluted solutions of the saturated filtrates of the Se-compounds were prepared in the anhydrous methanol (99% purity), by addition of 70 μL of the correspond-ing methanol stock solution over anhydrous methanol till filling a 7 mL final volume. Af-terwards, the absorption of abovementioned solutions was determined. Finally, the solu-tions were diluted with 99% methanol from 1 to 160 times, in function of the compound.
The aim of this procedure was to determine the concentration of the Se-compounds […]
through the controlled dilution of the solution with unknown concentration till its UV absorbance fell within the range of the calibration solutions.
1.2.4. Solubility estimation
For each compound, the calibration curve was calculated through the UV absorbance measurements and the linear equation of the linear part of the curve was calculated. The absorbance of the dilution was then interpolated in this range, finding its concentration.
To determine the solubility, this concentration was multiplied by the dilution factor, which was specific for each derivative. This action enabled the estimation of the in vitro solubility of the tested derivatives in saturated solutions. All the solubility values were the average value obtained from the 3 independent measurements.
1.3. PAMPA test: membrane permeability evaluation.
The passive transport and the membrane absorption of 5 selected selenocompounds (EDA-58, EDA-71, EDA-119, EDA-122, EDA-A6) were evaluated in the in vitro Parallel Artificial Membrane Permeability Assay (PAMPA). The protocol of the permeability assay was similar to the ones previously described.
1.3.1. Stock solutions and sample preparation for PAMPA test […]

[2] = Chemical stability in acidic and alkaline environments (TLC-monitored); type: physicochemical; conditions: TLC at 10 min, 1, 2, 3, 24, 48 h; for chemical stability in the acidic environment: 2 mg/mL in methanol + 10% HCl 1:1; for chemical stability in the alkaline environment: 2 mg/mL in methanol + 10% NaOH 1:1
Protocol: The chemical stability of the new organic selenocompounds was evaluated in two different environments (acidic and alkaline). Firstly, tested selenocompounds were dissolved in pure anhydrous methanol to obtain a stock solution with a concentration of 2 mg/mL. Then, the solution was divided into two equal parts. A 10% solution of HCl was added in 1:1 proportion to the first part, and a 10% solution of NaOH was added to the second part in the same 1:1 proportion. Then, the stability of the tested Se compounds, either in the acidic or in the basic conditions, was TLC-monitored at specific time periods: 10 min and 1, 2, 3, 24, and 48 h. The following eluents were used: (i) methylene chloride for EDA-26, EDA-73, EDA-74, EDA-93, EDA-109, EDA-119, EDA-120, and EDA-122; a mixture of n-hexane and ethyl acetate in a 4:1 ratio for EDA-58; (ii) chloroform for EDA-71 and EDA-A6; and (iii) acetone for EDA-117.
In the next step of the experiments, the chemical stability of 11 selenoesters (EDA-26, EDA-71, EDA-73, EDA-74, EDA-58, EDA-93, EDA-109, EDA-117, EDA-119, EDA-120 and EDA-122) and the selenoanhydride EDA-A6 in acidic and alkaline environments was evaluated by the use of a previously described method. Unfortunately, it was not possible to estimate the chemical stability of the compounds EDA-46, EDA-53, EDA-56, and […] due to their physicochemical properties: they were liquid at room temperature in the form of an oil, which is not miscible with water.

[3] = 20 °C, water, thermodynamic from solid, logSm calculated based on solubility Sm (mol/L), read-out: Experimental Aqueous Solubility logSm (converted)
[4] = thermodynamic from solid, water, room temperature (20° C), after 24 h, average of 3, read-out: Experimental Aqueous Solubility

Row | SMILES | solubility at 24 h [1, 3] [µM] | solubility at 24 h [1, 4] [µg/mL] | chemical stability in the acidic environment [2] | chemical stability in the alkaline environment [2] | fold less soluble than the most soluble Se compound (EDA-117) ([1]; experimental solubility) | solubility at 24 h ([1]; logSm calculated based on solubility Sm (mol/L), read-out: Experimental Aqueous Solubility logSm (converted)) [µM]
1 | O=C(C[Se]C(=O)c1ccccc1)Oc1ccccc1 [EDA-93, phenyl 2-(benzoylselanyl)acetate] | 69.2 | 22 | unstable | unstable | – | –
2 | CC(=O)C[Se]C(=O)c1ccc(Cl)cc1 [EDA-71, Se-(2-oxopropyl) 4-chlorobenzoselenoate] | 479 | 132 | totally unstable | unstable | – | –
3 | C[Se]C(=O)c1cccc(C(=O)[Se]C)n1 [EDA-119, Se,Se-dimethyl pyridine-2,6-bis(carboselenoate)] | 427 | 137 | – | – | – | –
4 | C[Se]C(=O)c1ccc(C(=O)[Se]C)s1 [EDA-122, Se,Se-dimethyl thiophene-2,5-bis(carboselenoate)] | 95.5 | 31 | – | – | – | –
5 | C[Se]C(=O)c1ccc(C(=O)[Se]C)cc1 [EDA-109, Se,Se-dimethyl benzene-1,4-bis(carboselenoate)] | 87.1 | 28 | stable till the end of the analysis (48 h) | totally unstable | – | –
6 | CC(C)(C)C(=O)C[Se]C(=O)c1ccc(Cl)cc1 [EDA-73, Se-(3,3-dimethyl-2-oxobutyl) 4-chlorobenzoselenoate] | ~3.16 | ~1 | stable till the end of the experiment (48 h) | unstable | more than 1000 fold | 3.16
7 | COC(=O)C[Se]C(=O)c1cc(OC)c(OC)c(OC)c1 [EDA-26, methyl 2-((3,4,5-trimethoxybenzoyl)selanyl)acetate] | 1100 | 380 | stable till the end of the analysis (48 h) | totally unstable | – | –
8 | C[Se]C(=O)c1cccc(C(=O)[Se]C)c1 [EDA-120, Se,Se-dimethyl benzene-1,3-bis(carboselenoate)] | 81.3 | 26 | stable till the end of the analysis (48 h) | totally unstable | – | –
9 | O=C1[Se]C(=O)c2ccccc21 [EDA-A6, benzo[c]selenophene-1,3-dione] | 3630 | 758 | – | unstable | – | –
10 | COc1cc(OC)cc(C(=O)[Se]CC(=O)C(C)(C)C)c1 [EDA-74, Se-(3,3-dimethyl-2-oxobutyl) 3,5-dimethoxybenzoselenoate] | 55 | 19 | stable till the end of the experiment (48 h) | unstable | – | –
